# Results published in patent publication US20110045101A1, “FUNGICIDAL SUBSTITUTED AZOLES” (E.I. Du Pont De Nemours and Company, priority 2009, published 2011).
# Marks after values point to notes of the source that are not given here.
# What was measured:
# Format in all cases: in vivo
# Conditions in all cases: 100 = 100% disease control
# Botrytis cinerea = assay: Test C: tomato Botrytis on tomato seedlings, sprayed the day before inoculation, visual disease rating
# How it was run: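 Tomato seedlings were sprayed until run-off with test suspensions in acetone/water (50/50) carrying 250 ppm polyhydric alcohol ester surfactant. Standard dose was 200 ppm, with 40 ppm for marked entries.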
# Septoria nodorum = assay: Test F: wheat glume blotch on wheat seedlings, sprayed the day before inoculation, visual disease rating
# How it was run: (§1)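 200 ppm run-off spray (500 g/ha equivalent); * = 40 ppm. Vehicle: acetone/water 50/50, 250 ppm Trem® 014.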
# Septoria tritici = assay: Test G: wheat leaf blotch on wheat seedlings, sprayed the day before inoculation, visual disease rating
# How it was run: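 Compounds dissolved in acetone (3% of final volume), then suspended in 50/50 acetone/water with 250 ppm Trem® 014 and sprayed to run-off on seedlings at 200 ppm (≈500 g/ha) or 40 ppm where marked. Inoculation with spores followed next day; visual rating after 48 h saturated at 24° C plus 19 days at 20° C.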
# [1] = tested on: Puccinia recondita f. sp. tritici; assay: Test H: wheat leaf rust, test suspension sprayed after inoculation of wheat seedlings, visual disease rating
# How it was run: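 Wheat seedlings inoculated with P. recondita spores, held 24 h saturated at 20 °C, then 2 days in growth chamber at 20 °C; compound suspension (acetone/water with Trem 014) sprayed to run-off afterwards. Rated visually; 200 ppm (≈500 g/ha) unless marked *, which denotes 40 ppm.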
# [2] = tested on: Erysiphe graminis f. sp. tritici; assay: Test J: wheat powdery mildew on wheat seedlings, sprayed the day before inoculation, visual disease rating
# How it was run: as §1
# [3] = tested on: Puccinia recondita f. sp. tritici; assay: Test I: wheat leaf rust on wheat seedlings, sprayed the day before inoculation, visual disease rating
# How it was run: as §1
# Alternaria solani = assay: Test D: tomato early blight, sprayed the day before inoculation, visual disease rating
# How it was run: as §1
# [4] = 200 ppm, 0 = no control relative to controls
SMILES,Test C disease control rating (Botrytis cinerea; 40 ppm (marked *)),Test F disease control rating (Septoria nodorum; 40 ppm (marked *)),Test G disease control rating (Septoria tritici; 40 ppm (marked *)),Test H disease control rating ([1]; 40 ppm (marked *)),Test J disease control rating ([2]; 40 ppm (marked *)),Test I disease control rating ([3]; 40 ppm (marked *)),Test D disease control rating (Alternaria solani; 40 ppm (marked *)),Test C disease control rating (Botrytis cinerea; [4]),Test F disease control rating (Septoria nodorum; [4]),Test G disease control rating (Septoria tritici; [4]),"Test H disease control rating [1, 4]","Test J disease control rating [2, 4]","Test I disease control rating [3, 4]",Test D disease control rating (Alternaria solani; [4])
Fc1cccc(F)c1-c1c(Cl)nc(CCl)n1-c1ccc2c(c1)OCCO2 [compound 469],65* %,0* %,79* %,0* %,0* %,81* %,0* %,–,–,–,–,–,–,–
Cc1nc(Cl)c(-c2c(F)cccc2F)n1-c1ccc2c(c1)OCCO2 [compound 470],99* %,0* %,92* %,0* %,87* %,99* %,99* %,–,–,–,–,–,–,–
COc1ccc(F)c(-c2c(Br)nc(Br)n2-c2ccc(Cl)cc2)c1F [compound 471],–,–,–,–,–,–,–,100%,100%,97%,0%,100%,98%,100%
COc1ccc(F)c(-c2c(Br)nc(Cl)n2-c2ccc(F)cc2)c1F [compound 472],–,–,–,–,–,–,–,100%,100%,96%,80%,100%,100%,100%
COc1ccc(F)c(-c2c(Br)ncn2-c2ccc(C)cc2)c1F [compound 473],–,–,–,–,–,–,–,99%,0%,97%,0%,100%,100%,100%
COc1cc(F)c(-n2nnc(Br)c2-c2ccc(Cl)cc2)c(F)c1 [compound 474],–,–,–,–,–,–,–,99%,0%,90%,0%,95%,36%,57%
COc1cc(OC)cc(-n2c(Cc3ccc(F)cc3F)cnc2C)c1 [compound 476],–,–,–,–,–,–,–,0%,0%,59%,0%,47%,78%,0%
COc1cc(OC)c(Br)c(-n2c(C)nc(Br)c2Cc2ccc(F)cc2F)c1Br [compound 477],–,–,–,–,–,–,–,9%,0%,0%,0%,0%,75%,0%
COc1cc(F)c(-n2nnc(Cl)c2-c2ccc(Cl)cc2)c(F)c1 [compound 478],–,–,–,–,–,–,–,100%,0%,93%,0%,97%,96%,93%
CCc1ccc(-n2c(C)nc(Cl)c2-c2c(F)ccc(OC)c2F)cc1 [compound 479],–,–,–,–,–,–,–,100%,95%,94%,0%,100%,99%,100%
Cc1nc(Cl)c(-c2c(F)ccc(F)c2F)n1-c1ccc(Cl)c(Cl)c1 [compound 480],–,–,–,–,–,–,–,100%,95%,96%,0%,100%,99%,100%
COc1ccc(F)c(-c2c(Cl)nc(Cl)n2-c2ccc(Cl)cc2)c1Cl [compound 481],–,–,–,–,–,–,–,100%,99%,95%,0%,100%,97%,100%
COc1ccc(Cl)c(-c2c(Cl)ncn2-c2ccc(Cl)cc2)c1F [compound 482],–,–,–,–,–,–,–,99%,69%,95%,0%,99%,91%,99%
COc1cc(F)c(-c2c(Cl)nc(Br)n2-c2cccc(Cl)c2)c(F)c1 [compound 483],–,–,–,–,–,–,–,100%,0%,94%,32%,100%,98%,99%
COc1cc(F)c(-c2c(Cl)nc(Br)n2-c2ccc(F)c(F)c2)c(F)c1 [compound 484],–,–,–,–,–,–,–,100%,89%,95%,28%,100%,100%,100%
Fc1cc(-n2c(Cl)nc(Cl)c2-c2ccnc(Br)c2)ccc1Cl [compound 485],–,–,–,–,–,–,–,96%,0%,95%,0%,98%,98%,88%
